This note sets out measurements from patent US20260116910A1, “POLYCYCLIC COMPOUNDS AND METHODS THEREOF” (HEPAITECH (BEIJING) BIOPHARMA TECHNOLOGY CO., LTD., priority 2021, published 2026).

One assay deals with T1, human FXR (NR1H4) (Homo sapiens, UniProt Q96RI1).
T1 sequence (Q96RI1 1-476 isoform Q96RI1-1): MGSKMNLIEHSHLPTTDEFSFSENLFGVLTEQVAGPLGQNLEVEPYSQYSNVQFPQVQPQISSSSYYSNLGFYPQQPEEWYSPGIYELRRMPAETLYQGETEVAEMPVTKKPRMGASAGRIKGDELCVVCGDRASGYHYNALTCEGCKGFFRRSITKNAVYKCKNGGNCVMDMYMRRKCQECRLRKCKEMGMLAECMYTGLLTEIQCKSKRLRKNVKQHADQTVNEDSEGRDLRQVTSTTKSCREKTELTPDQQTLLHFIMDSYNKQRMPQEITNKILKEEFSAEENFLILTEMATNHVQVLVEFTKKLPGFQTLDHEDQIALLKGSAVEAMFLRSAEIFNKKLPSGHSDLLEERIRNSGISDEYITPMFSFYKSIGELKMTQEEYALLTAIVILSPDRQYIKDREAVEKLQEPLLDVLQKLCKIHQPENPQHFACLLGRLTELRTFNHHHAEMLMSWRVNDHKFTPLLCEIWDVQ
The assay is described as follows: Human FXR (NR1H4) agonist assessment, FXRE-NanoLuc reporter in HEK293T cells. It counts as cell-based. The following applies: FXR activation, HEK293T FXRE-NanoLuc reporter, 24 hr; for EC50: read-out: EC50. The gist of the method:
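HEK293T cells stably expressing human FXR with an FXRE-NanoLuc reporter were treated with compounds for 24 hr at 37 °C, with 0.01% DMSO as negative control. Medium was read for luminescence after 5 min with coelenterazine. EC50 was fitted by sigmoid to concentration-response data.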

The next assay has as its target MRGPRX4 (Homo sapiens, UniProt Q96LA9). The assay is described as follows: MRGPRX4 activation, Fluo-8 Ca2+ FLIPR assay in HEK293T cells stably expressing MRGPRX4. The class given is cell-based. More on the design: key to MRGPRX4 activation, Average / MRGPRX4 activation, Ave.: fluorescence change dF/F0. Conditions: for EC50: MRGPRX4 activation, Ca2+ fluorescence, no activation in tested range reported as III, read-out: Activity (EC50 μM). The gist of the method:
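Cells seeded overnight to >95% confluence, loaded 40-60 min at room temperature with 2 μM Fluo-8 AM, then kept in HHBS. Baseline read 30 s, compound added, signal followed 150 s more.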

The mark [1] stands for this setting: E3-6-2, 1st of 6 concentration columns (head not in rows shown).
The mark [2] stands for this setting: E3-6-2, 3rd of 6 concentration columns (head not in rows shown).
Where [3] appears, read: E3-6-2, 6th of 6 concentration columns (head not in rows shown).
The mark [4] stands for this setting: E3-6-2, concentration not given.

Sequence of MRGPRX4 (Q96LA9 whole entry): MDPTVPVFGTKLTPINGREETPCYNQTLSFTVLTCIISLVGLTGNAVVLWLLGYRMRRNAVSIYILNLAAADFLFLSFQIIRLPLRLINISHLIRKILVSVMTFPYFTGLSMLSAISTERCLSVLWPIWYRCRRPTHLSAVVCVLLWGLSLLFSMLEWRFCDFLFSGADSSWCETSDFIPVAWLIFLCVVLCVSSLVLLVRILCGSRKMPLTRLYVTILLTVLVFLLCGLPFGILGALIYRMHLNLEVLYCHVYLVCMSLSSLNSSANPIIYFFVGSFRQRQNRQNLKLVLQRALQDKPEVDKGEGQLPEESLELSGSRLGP

As for `CC[C@H]1[C@@H](O)[C@@H]2[C@H](CC[C@]3(C)[C@@H]([C@H](C)CCNC(=O)NS(=O)(=O)c4cccc(Cl)c4)CC[C@@H]23)[C@@]2(C)CCCC[C@@H]12` [5-7], the “Efficacy (maximum measured induction of NanoLuc, normalized to CDCA set as 100%)” value at human FXR (NR1H4) was “B (300%<efficacy <=400%)”. In addition, the EC50 (commonly the concentration that produces a half-maximal response) was under 1 µM at human FXR (NR1H4) and over 100 µM on MRGPRX4. The “MRGPRX4 activation, fluorescence change (dF/F0), Average” value (from here on “MRGPRX4 activation, fluorescence change”) is listed as 0.070 on MRGPRX4 (Conc. (Log[M]) −4); 0.027 at MRGPRX4 (Conc. (Log[M]) −4.5); 0.030 on MRGPRX4 (Conc. (Log[M]) −5); 0.020 on MRGPRX4 (Conc. (Log[M]) −5.5); 0.020 on MRGPRX4 (Conc. (Log[M]) −6); 0.017 at MRGPRX4 (Conc. (Log[M]) −7).

Take `CC[C@H]1[C@@H](O)[C@@H]2[C@H](CC[C@]3(C)[C@@H]([C@H](C)CCNC(=O)NS(=O)(=O)c4ccc(C)cc4)CC[C@@H]23)[C@@]2(C)CCCC[C@@H]12` [5-8]: on human FXR (NR1H4), the “Efficacy (maximum measured induction of NanoLuc, normalized to CDCA set as 100%)” value was “C (100%<efficacy <=300%)”. The concentration for a half-maximal effect (EC50) at human FXR (NR1H4) was under 1 µM; on MRGPRX4 it was over 100 µM. Also, the “MRGPRX4 activation, fluorescence change” value at MRGPRX4 (Conc. (Log[M]) −4) was 0.073; on MRGPRX4 (Conc. (Log[M]) −4.5), 0.037; at MRGPRX4 (Conc. (Log[M]) −5) it was 0.023; at MRGPRX4 (Conc. (Log[M]) −5.5), 0.017; at MRGPRX4 (Conc. (Log[M]) −6) it was 0.020; on MRGPRX4 (Conc. (Log[M]) −7), 0.023.

With `CC[C@H]1[C@@H](O)[C@@H]2[C@H](CC[C@]3(C)[C@@H]([C@H](C)CCNC(=O)NS(=O)(=O)c4ccc(C(C)(C)C(=O)O)cc4)CC[C@@H]23)[C@@]2(C)CCCC[C@@H]12` [5-10], the “Efficacy (maximum measured induction of NanoLuc, normalized to CDCA set as 100%)” value at human FXR (NR1H4) is on record as “C (100%<efficacy <=300%)”. In addition, the EC50 on human FXR (NR1H4) was under 1 µM; at MRGPRX4, over 100 µM. Further, the “MRGPRX4 activation, fluorescence change” value is given as 0.090 at MRGPRX4 (Conc. (Log[M]) −4); 0.043 at MRGPRX4 (Conc. (Log[M]) −4.5); 0.013 at MRGPRX4 (Conc. (Log[M]) −5); 0.017 at MRGPRX4 (Conc. (Log[M]) −5.5); 0.020 at MRGPRX4 (Conc. (Log[M]) −6); 0.030 on MRGPRX4 (Conc. (Log[M]) −7).

On to `CC[C@H]1[C@@H](O)[C@@H]2[C@H](CC[C@]3(C)[C@@H]([C@H](C)CCNC(=O)NS(=O)(=O)N4CCCC4)CC[C@@H]23)[C@@]2(C)CCCC[C@@H]12` [5-11], for which the “Efficacy (maximum measured induction of NanoLuc, normalized to CDCA set as 100%)” value on human FXR (NR1H4) is listed as “C (100%<efficacy <=300%)”. The EC50 on human FXR (NR1H4) was 1 to 10 µM; on MRGPRX4 it was over 100 µM. Moreover, the “MRGPRX4 activation, fluorescence change” value came to 0.057 on MRGPRX4 (Conc. (Log[M]) −4); 0.030 at MRGPRX4 (Conc. (Log[M]) −4.5); 0.033 on MRGPRX4 (Conc. (Log[M]) −5); 0.013 on MRGPRX4 (Conc. (Log[M]) −5.5); 0.023 at MRGPRX4 (Conc. (Log[M]) −6); 0.067 on MRGPRX4 (Conc. (Log[M]) −7).

As for `CC[C@H]1[C@@H](O)[C@@H]2[C@H](CC[C@]3(C)[C@@H]([C@H](C)CCNC(=O)NS(=O)(=O)N4CC5CC5C4)CC[C@@H]23)[C@@]2(C)CCCC[C@@H]12` (stereo partly drawn) [5-12], on human FXR (NR1H4), the “Efficacy (maximum measured induction of NanoLuc, normalized to CDCA set as 100%)” value is recorded as “C (100%<efficacy <=300%)”. For the same compound, the EC50 on human FXR (NR1H4) is 1 to 10 µM; at MRGPRX4, over 100 µM. The “MRGPRX4 activation, Average” value was found to be 0.057 at MRGPRX4 (setting [1]), 0.023 on MRGPRX4 (setting [2]), 0.013 at MRGPRX4 (setting [3]) and 0.013 on MRGPRX4 (setting [4]).

Turning to `CC[C@H]1[C@@H](O)[C@@H]2[C@H](CC[C@]3(C)[C@@H]([C@H](C)CCNC(=O)NS(=O)(=O)Cc4ccccc4)CC[C@@H]23)[C@@]2(C)CCCC[C@@H]12` [5-13], on human FXR (NR1H4), the “Efficacy (maximum measured induction of NanoLuc, normalized to CDCA set as 100%)” value is reported as “C (100%<efficacy <=300%)”. Besides, the EC50 on human FXR (NR1H4) is under 1 µM; on MRGPRX4, over 100 µM. Besides, the “MRGPRX4 activation, Average” value is reported as 0.060 at MRGPRX4 (setting [1]), 0.030 at MRGPRX4 (setting [2]), 0.027 at MRGPRX4 (setting [3]) and 0.017 on MRGPRX4 (setting [4]).

Consider `CCCCS(=O)(=O)NC(=O)NCC[C@@H](C)[C@H]1CC[C@H]2[C@@H]3[C@H](O)[C@H](CC)[C@@H]4CCCC[C@]4(C)[C@H]3CC[C@]12C` [5-14], for which, on human FXR (NR1H4), the “Efficacy (maximum measured induction of NanoLuc, normalized to CDCA set as 100%)” value was “C (100%<efficacy <=300%)”. Besides, the EC50 at human FXR (NR1H4) is under 1 µM; at MRGPRX4, over 100 µM. The “MRGPRX4 activation, Average” value is 0.070 on MRGPRX4 (setting [1]), 0.017 at MRGPRX4 (setting [2]), 0.017 on MRGPRX4 (setting [3]) and 0.017 on MRGPRX4 (setting [4]).

As for `CC[C@H]1[C@@H](O)[C@@H]2[C@H](CC[C@]3(C)[C@@H]([C@H](C)CCNC(=O)NS(=O)(=O)c4ccc(C(C)(C)C(N)=O)cc4)CC[C@@H]23)[C@@]2(C)CCCC[C@@H]12` [5-16], on human FXR (NR1H4), the “Efficacy (maximum measured induction of NanoLuc, normalized to CDCA set as 100%)” value is reported as “C (100%<efficacy <=300%)”. For the same compound, the EC50 on human FXR (NR1H4) is under 1 µM; at MRGPRX4, over 100 µM. Moreover, the “MRGPRX4 activation, fluorescence change” value on MRGPRX4 (Conc. (Log[M]) −4.0) is reported as 0.030; on MRGPRX4 (Conc. (Log[M]) −4.5), 0.020; on MRGPRX4 (Conc. (Log[M]) −5.0), 0.010; on MRGPRX4 (Conc. (Log[M]) −5.4) it was 0.020; on MRGPRX4 (Conc. (Log[M]) −5.9), 0.020; on MRGPRX4 (Conc. (Log[M]) −6.4) it was 0.013. For the same compound, the “MRGPRX4 activation, fluorescence change” value on MRGPRX4 (Conc. (Log[M]) −6.9) was 0.013; at MRGPRX4 (Conc. (Log[M]) −7.3), 0.013; at MRGPRX4 (Conc. (Log[M]) −7.8) it was 0.013; at MRGPRX4 (Conc. (Log[M]) −8.3), 0.025.

On to `CC[C@H]1[C@@H](O)[C@@H]2[C@H](CC[C@]3(C)[C@@H]([C@H](C)CCNC(=O)NS(=O)(=O)c4ccc(C(C)(C)C#N)cc4)CC[C@@H]23)[C@@]2(C)CCCC[C@@H]12` [5-17], for which the “Efficacy (maximum measured induction of NanoLuc, normalized to CDCA set as 100%)” value on human FXR (NR1H4) is reported as “C (100%<efficacy <=300%)”. In addition, the EC50 was under 1 µM on human FXR (NR1H4) and over 100 µM on MRGPRX4. Further, the “MRGPRX4 activation, fluorescence change” value on MRGPRX4 (Conc. (Log[M]) −4.0) amounted to 0.016; on MRGPRX4 (Conc. (Log[M]) −4.5), 0.018; on MRGPRX4 (Conc. (Log[M]) −5.0), 0.019; on MRGPRX4 (Conc. (Log[M]) −5.4), 0.016; at MRGPRX4 (Conc. (Log[M]) −5.9), 0.018; at MRGPRX4 (Conc. (Log[M]) −6.4), 0.018. The “MRGPRX4 activation, fluorescence change” value is given as 0.011 on MRGPRX4 (Conc. (Log[M]) −6.9), 0.018 on MRGPRX4 (Conc. (Log[M]) −7.3), 0.020 at MRGPRX4 (Conc. (Log[M]) −7.8) and 0.013 on MRGPRX4 (Conc. (Log[M]) −8.3).

For the compound `CC[C@H]1[C@@H](O)[C@@H]2[C@H](CC[C@]3(C)[C@@H]([C@H](C)CCNC(=O)NS(=O)(=O)c4ccc(C(C)(C)CN)cc4)CC[C@@H]23)[C@@]2(C)CCCC[C@@H]12` [5-18], the “Efficacy (maximum measured induction of NanoLuc, normalized to CDCA set as 100%)” value at human FXR (NR1H4) was “B (300%<efficacy <=400%)”. The EC50 was under 1 µM on human FXR (NR1H4) and over 100 µM on MRGPRX4. The “MRGPRX4 activation, fluorescence change” value is recorded as 0.018 at MRGPRX4 (Conc. (Log[M]) −4.0); 0.008 at MRGPRX4 (Conc. (Log[M]) −4.5); 0.021 at MRGPRX4 (Conc. (Log[M]) −5.0); 0.021 on MRGPRX4 (Conc. (Log[M]) −5.4); 0.021 on MRGPRX4 (Conc. (Log[M]) −5.9); 0.021 at MRGPRX4 (Conc. (Log[M]) −6.4). For the same compound, the “MRGPRX4 activation, fluorescence change” value is 0.011 at MRGPRX4 (Conc. (Log[M]) −6.9), 0.018 at MRGPRX4 (Conc. (Log[M]) −7.3), 0.020 at MRGPRX4 (Conc. (Log[M]) −7.8) and 0.013 at MRGPRX4 (Conc. (Log[M]) −8.3).
